pIC50: −log10 of the molar value.

T1 sequence (P08069 31-1367): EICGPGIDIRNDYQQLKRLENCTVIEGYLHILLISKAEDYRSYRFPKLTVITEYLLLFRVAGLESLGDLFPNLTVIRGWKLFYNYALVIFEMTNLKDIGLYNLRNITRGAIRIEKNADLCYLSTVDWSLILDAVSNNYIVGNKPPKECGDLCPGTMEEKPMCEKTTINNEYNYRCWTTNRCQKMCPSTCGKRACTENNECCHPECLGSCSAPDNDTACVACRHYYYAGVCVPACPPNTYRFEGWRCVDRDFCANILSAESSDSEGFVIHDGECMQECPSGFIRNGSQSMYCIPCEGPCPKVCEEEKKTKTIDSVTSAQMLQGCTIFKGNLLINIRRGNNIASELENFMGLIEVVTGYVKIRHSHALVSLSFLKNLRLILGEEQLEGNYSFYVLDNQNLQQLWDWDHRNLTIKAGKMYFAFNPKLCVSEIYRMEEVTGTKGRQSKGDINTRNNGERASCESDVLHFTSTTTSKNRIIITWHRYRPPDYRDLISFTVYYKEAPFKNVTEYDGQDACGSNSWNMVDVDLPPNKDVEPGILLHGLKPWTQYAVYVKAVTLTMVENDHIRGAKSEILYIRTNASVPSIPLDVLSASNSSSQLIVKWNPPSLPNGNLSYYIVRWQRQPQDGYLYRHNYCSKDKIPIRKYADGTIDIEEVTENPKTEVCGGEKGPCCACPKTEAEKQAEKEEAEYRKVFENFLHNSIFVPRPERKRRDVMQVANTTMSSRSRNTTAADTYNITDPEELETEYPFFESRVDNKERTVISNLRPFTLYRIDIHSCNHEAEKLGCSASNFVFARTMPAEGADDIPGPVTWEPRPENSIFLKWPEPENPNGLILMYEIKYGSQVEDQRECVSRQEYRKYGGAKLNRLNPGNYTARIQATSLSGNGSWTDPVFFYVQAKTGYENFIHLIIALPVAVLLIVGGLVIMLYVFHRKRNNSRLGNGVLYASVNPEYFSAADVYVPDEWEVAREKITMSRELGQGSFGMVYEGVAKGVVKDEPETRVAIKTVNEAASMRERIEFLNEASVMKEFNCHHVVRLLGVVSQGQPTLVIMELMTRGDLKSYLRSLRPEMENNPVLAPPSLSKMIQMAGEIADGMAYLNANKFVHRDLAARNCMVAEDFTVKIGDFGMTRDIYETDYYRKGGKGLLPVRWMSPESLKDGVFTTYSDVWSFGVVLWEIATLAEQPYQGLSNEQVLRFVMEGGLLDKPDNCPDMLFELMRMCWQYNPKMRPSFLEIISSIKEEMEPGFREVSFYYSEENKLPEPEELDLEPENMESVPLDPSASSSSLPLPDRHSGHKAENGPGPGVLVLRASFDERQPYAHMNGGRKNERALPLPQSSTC

The assay addresses T1, IGFR kinase (Homo sapiens, UniProt P08069).
T1 construct: purchased Millipore
In words: Enzyme assay (c), IGFR kinase, Caliper LabChip. In kind it is biochemical. The following applies: 30 nM IGFR kinase, 6 uM ATP, 3 uM peptide mix; read-out: IGFR IC50. Here is the method: For Echo dosing the solvent was 100% DMSO. A master plate was prepared with 40 ul of 10 mM stock solution of the test compound in DMSO in quadrant 1 of a Labcyte 384 well plate. A 1 in 100 dilution was made from quadrant 1 into quadrant 2 by removing 0.4 ul and adding it to 39.6 ul of DMSO. Subsequent 1 in 100 dilutions were made into quadrant 3 from quadrant 2 and quadrant 4 from quadrant 3.
Multiple 2.5 nl droplets were dispensed from each quadrant of the master plate to generate the dose range that was required in the test. The dose range most commonly used was as follows: 100 uM, 30 uM, 10 uM, 3 uM, 1 uM, 0.3 uM, 0.1 uM, 0.03 uM, 0.01 uM, 0.003 uM, 0.001 uM, 0.0001 uM. Each well was backfilled with dimethyl sulfoxide (DMSO) to a total volume of 120 nl, such that when the enzyme and substrate mix was added the final DMSO concentration was 1%.
DMSO was added to max control wells as 120 nl, minimum control wells were treated with 120 nl of compound at a concentration that inhibited the enzyme activity 100%.
Integration of the substrate and product peaks was carried out using Caliper LabChip software and IC50 curves were calculated using Origin™ software.
For orientation: pIC50 means the negative decadic logarithm of the IC50, by convention in mol/L. `COc1cc(N2C[C@@H](C)N(C(C)=O)C[C@@H]2C)ccc1Nc1ncc(Cl)c(-c2cnc3ccccn23)n1` [Example 3.35, 1-[(2R,5S)-4-[4-[(5-chloro-4-imidazo[1,2-a]pyridin-3-yl-pyrimidin-2-yl)amino]-3-methoxy-phenyl]-2,5-dimethyl-piperazin-1-yl]ethanone]: the pIC50 is 8.00.

Take `COc1cc(N2CCN(C(C)=O)C(C)C2)ccc1Nc1ncc(Cl)c(-c2cnc3ccccn23)n1` (stereo not shown) [Example 3.36, 1-[4-[4-[(5-chloro-4-imidazo[1,2-a]pyridin-3-yl-pyrimidin-2-yl)amino]-3-methoxy-phenyl]-2-methyl-piperazin-1-yl]ethanone]: the pIC50 was 8.10.

On to `CC(=O)N1CCN(c2cccc(Nc3ncc(Cl)c(-c4cnc5ccccn45)n3)c2C)CC1` [Example 3.37, 1-[4-[3-[(5-chloro-4-imidazo[1,2-a]pyridin-3-yl-pyrimidin-2-yl)amino]-2-methyl-phenyl]piperazin-1-yl]ethanone], for which the pIC50 was 7.92.

For `COc1cc(N2CCN(C(C)=O)C(CO)C2)ccc1Nc1ncc(Cl)c(-c2cnc3ccccn23)n1` (stereo not shown) [Example 3.38, 1-[4-[4-[(5-chloro-4-imidazo[1,2-a]pyridin-3-yl-pyrimidin-2-yl)amino]-3-methoxy-phenyl]-2-(hydroxymethyl)piperazin-1-yl]ethanone], the pIC50 is 7.68.

In the case of `COc1cc(C(C)C(=O)N2CCOCC2)ccc1Nc1ncc(Cl)c(-c2cnc3ccccn23)n1` (stereo not shown) [Example 3.39, 2-[4-[(5-chloro-4-imidazo[1,2-a]pyridin-3-yl-pyrimidin-2-yl)amino]-3-methoxy-phenyl]-1-morpholino-propan-1-one], the pIC50 is 7.51.

With `COc1cc(N2CCN(C(C)=O)C[C@@H](O)C2)ccc1Nc1ncc(Cl)c(-c2cnc3ccccn23)n1` [Example 3.40, 1-[(6S)-4-[4-[(5-chloro-4-imidazo[1,2-a]pyridin-3-yl-pyrimidin-2-yl)amino]-3-methoxy-phenyl]-6-hydroxy-1,4-diazepan-1-yl]ethanone], the pIC50 is 7.62.

In the case of `COc1cc(C(C)C(=O)N2CCN(CCO)CC2)ccc1Nc1ncc(Cl)c(-c2cnc3ccccn23)n1` (stereo not shown) [Example 3.41, 2-[4-[(5-chloro-4-imidazo[1,2-a]pyridin-3-yl-pyrimidin-2-yl)amino]-3-methoxy-phenyl]-1-[4-(2-hydroxyethyl)piperazin-1-yl]propan-1-one], the pIC50 was 7.80.

`COc1cc(C(C)C(=O)N2CCNCC2)ccc1Nc1ncc(Cl)c(-c2cnc3ccccn23)n1` (stereo not shown) [Example 3.42, 2-[4-[(5-chloro-4-imidazo[1,2-a]pyridin-3-yl-pyrimidin-2-yl)amino]-3-methoxy-phenyl]-1-piperazin-1-yl-propan-1-one]: the pIC50 was 7.60.

For `COc1cc(N2CCCC2)ccc1Nc1ncc(Cl)c(-c2cnc3ccccn23)n1` [Example 3.44, 5-chloro-4-imidazo[1,2-a]pyridin-3-yl-N-(2-methoxy-4-pyrrolidin-1-yl-phenyl)pyrimidin-2-amine], the pIC50 is 9.52.

Regarding `COCCN1CCN(c2ccc(Nc3ncc(Cl)c(-c4cnc5ccccn45)n3)c(OC)c2)CC1` [Example 3.46, 5-chloro-4-imidazo[1,2-a]pyridin-3-yl-N-[2-methoxy-4-[4-(2-methoxyethyl)piperazin-1-yl]phenyl]pyrimidin-2-amine], the pIC50 was 8.22.

For the molecule `COc1cc(N2CC[C@H](O)C2)ccc1Nc1ncc(Cl)c(-c2cnc3ccccn23)n1` [Example 3.47, (3S)-1-[4-[(5-chloro-4-imidazo[1,2-a]pyridin-3-yl-pyrimidin-2-yl)amino]-3-methoxy-phenyl]pyrrolidin-3-ol], the pIC50 is 7.49.

`COc1cc(N2CCCOCC2)ccc1Nc1ncc(Cl)c(-c2cnc3ccccn23)n1` [Example 3.48, 5-chloro-4-imidazo[1,2-a]pyridin-3-yl-N-[2-methoxy-4-(1,4-oxazepan-4-yl)phenyl]pyrimidin-2-amine]: the negative logarithm of the IC50 (pIC50) was 7.60.

Regarding `COc1cc(N2CC[C@@H](O)C2)ccc1Nc1ncc(Cl)c(-c2cnc3ccccn23)n1` [Example 3.49, (3R)-1-[4-[(5-chloro-4-imidazo[1,2-a]pyridin-3-yl-pyrimidin-2-yl)amino]-3-methoxy-phenyl]pyrrolidin-3-ol], the pIC50 was 7.72.

As for `COc1cc(OC[C@H]2CCCN2)ccc1Nc1ncc(Cl)c(-c2cnc3ccccn23)n1` [Example 6.1, 5-chloro-4-imidazo[1,2-a]pyridin-3-yl-N-[2-methoxy-4-[[(2R)-pyrrolidin-2-yl]methoxy]phenyl]pyrimidin-2-amine], the pIC50 was 7.92.

With `COc1cc(OC[C@@H]2CCCN2)ccc1Nc1ncc(Cl)c(-c2cnc3ccccn23)n1` [Example 6.2, 5-chloro-4-imidazo[1,2-a]pyridin-3-yl-N-[2-methoxy-4-[[(2S)-pyrrolidin-2-yl]methoxy]phenyl]pyrimidin-2-amine], the pIC50 is 7.85.

Turning to `COc1ccc(OC[C@@H]2CCCN2)cc1Nc1ncc(Cl)c(-c2cnc3ccccn23)n1` [Example 6.3, 5-chloro-4-imidazo[1,2-a]pyridin-3-yl-N-[2-methoxy-5-[[(2S)-pyrrolidin-2-yl]methoxy]phenyl]pyrimidin-2-amine], the pIC50 is 7.74.

Turning to `COc1ccc(OC[C@H]2CCCN2)cc1Nc1ncc(Cl)c(-c2cnc3ccccn23)n1` [Example 6.4, 5-chloro-4-imidazo[1,2-a]pyridin-3-yl-N-[2-methoxy-5-[[(2R)-pyrrolidin-2-yl]methoxy]phenyl]pyrimidin-2-amine], the pIC50 was 7.92.

In the case of `COc1cc(O[C@@H]2CCNC2)ccc1Nc1ncc(Cl)c(-c2cnc3ccccn23)n1` [Example 6.5, 5-chloro-4-imidazo[1,2-a]pyridin-3-yl-N-[2-methoxy-4-[(3R)-pyrrolidin-3-yl]oxy-phenyl]pyrimidin-2-amine], the pIC50 was 7.96.

Turning to `COc1cc(O[C@H]2CCNC2)ccc1Nc1ncc(Cl)c(-c2cnc3ccccn23)n1` [Example 6.6, 5-chloro-4-imidazo[1,2-a]pyridin-3-yl-N-[2-methoxy-4-[(3S)-pyrrolidin-3-yl]oxy-phenyl]pyrimidin-2-amine], the pIC50 is 7.85.

Regarding `COc1cc(OC2CCN(S(C)(=O)=O)CC2)ccc1Nc1ncc(Cl)c(-c2cnc3ccccn23)n1` [Example 8, 5-chloro-4-imidazo[1,2-a]pyridin-3-yl-N-[2-methoxy-4-[(1-methylsulfonyl-4-piperidyl)oxy]phenyl]pyrimidin-2-amine], the pIC50 was 7.70.

On to `COc1cc(OC2CCN(C(=O)C(C)O)CC2)ccc1Nc1ncc(Cl)c(-c2cnc3ccccn23)n1` (stereo not shown) [Example 9, 1-[4-[4-[(5-chloro-4-imidazo[1,2-a]pyridin-3-yl-pyrimidin-2-yl)amino]-3-methoxy-phenoxy]-1-piperidyl]-2-hydroxy-propan-1-one], for which the pIC50 was 7.68.

For the molecule `COc1cc(OC2CCN(C(=O)[C@H](C)O)CC2)ccc1Nc1ncc(Cl)c(-c2cnc3ccccn23)n1` [Example 9A, (2S)-1-[4-[4-[(5-chloro-4-imidazo[1,2-a]pyridin-3-yl-pyrimidin-2-yl)amino]-3-methoxy-phenoxy]-1-piperidyl]-2-hydroxy-propan-1-one], the pIC50 is 7.74.

Consider `COc1cc(O[C@@H]2CCN(C(C)=O)C2)ccc1Nc1ncc(Cl)c(-c2cnc3ccccn23)n1` [Example 10, 1-[(3R)-3-[4-[(5-chloro-4-imidazo[1,2-a]pyridin-3-yl-pyrimidin-2-yl)amino]-3-methoxy-phenoxy]pyrrolidin-1-yl]ethanone], for which the pIC50 is 7.70.

Turning to `COc1cc(O[C@@H]2CCN(S(C)(=O)=O)C2)ccc1Nc1ncc(Cl)c(-c2cnc3ccccn23)n1` [Example 11, 5-chloro-4-imidazo[1,2-a]pyridin-3-yl-N-[2-methoxy-4-[(3R)-1-methylsulfonylpyrrolidin-3-yl]oxy-phenyl]pyrimidin-2-amine], the pIC50 was 7.74.

For the molecule `COc1cc(O[C@@H]2CCN(C(=O)[C@H](C)O)C2)ccc1Nc1ncc(Cl)c(-c2cnc3ccccn23)n1` [Example 12A, (2S)-1-[(3R)-3-[4-[(5-chloro-4-imidazo[1,2-a]pyridin-3-yl-pyrimidin-2-yl)amino]-3-methoxy-phenoxy]pyrrolidin-1-yl]-2-hydroxy-propan-1-one], the negative logarithm of the IC50 (pIC50) is 7.89.

`COc1cc(O[C@H]2CCN(C(C)=O)C2)ccc1Nc1ncc(Cl)c(-c2cnc3ccccn23)n1` [Example 13, 1-[(3S)-3-[4-[(5-chloro-4-imidazo[1,2-a]pyridin-3-yl-pyrimidin-2-yl)amino]-3-methoxy-phenoxy]pyrrolidin-1-yl]ethanone]: the pIC50 was 7.70.

Consider `COc1cc(O[C@H]2CCN(S(C)(=O)=O)C2)ccc1Nc1ncc(Cl)c(-c2cnc3ccccn23)n1` [Example 14, 5-chloro-4-imidazo[1,2-a]pyridin-3-yl-N-[2-methoxy-4-[(3S)-1-methylsulfonylpyrrolidin-3-yl]oxy-phenyl]pyrimidin-2-amine], for which the negative-log IC50 (pIC50) was 7.72.

As for `COc1cc(O[C@H]2CCN(C(=O)[C@H](C)O)C2)ccc1Nc1ncc(Cl)c(-c2cnc3ccccn23)n1` [Example 15A, (2S)-1-[(3S)-3-[4-[(5-chloro-4-imidazo[1,2-a]pyridin-3-yl-pyrimidin-2-yl)amino]-3-methoxy-phenoxy]pyrrolidin-1-yl]-2-hydroxy-propan-1-one], the pIC50 is 7.44.

Source of the values: patent US20100105655A1, “NOVEL COMPOUNDS 515” (ASTRAZENECA AB, priority 2008, published 2010).
